Measurements published in the RepoRT retention time repository.

test: HILIC, HILICON iHILIC-(P) Classic, HILIC, PEEK, 50 × 2.1 mm, 5 µm, 30 °C, 0.12 mL/min, estimated dead time 0.92 min; A: water + 20 mM ammonium carbonate; B: acetonitrile; gradient (min/%B) 0/80 1/80 21/20 21.5/20 26.5/20 27.5/80 35/80; details: stereoisomer not certain

Row | LC retention time | SMILES
1 | 16.3 min | NC(=O)C1=CN(C2OC(COP(=O)(O)OP(=O)(O)OCC3OC(n4cnc5c(N)ncnc54)C(OP(=O)(O)O)C3O)C(O)C2O)C=CC1 (configuration not stated) [NADPH]
2 | 5.63 min | CC(C)CC(N)C(=O)O (configuration not stated) [Leucine]
3 | 2.1 min | O=C(O)c1cccnc1 [Nicotinic acid]
4 | 11.5 min | O=C(CO)COP(=O)(O)O [Triose phosphate]
5 | 9.43 min | NC(=O)c1ccc[n+](C2OC(COP(=O)(O)OP(=O)(O)OCC3OC(n4cnc5c(N)ncnc54)C(O)C3O)C(O)C2O)c1 (configuration not stated) [NAD]
6 | 14.1 min | O=c1ccn(C2OC(COP(=O)(O)OP(=O)(O)OP(=O)(O)O)C(O)C2O)c(=O)[nH]1 (configuration not stated) [UTP]
7 | 9.49 min | CC(=O)NC(CC(=O)O)C(=O)O (configuration not stated) [N-Acetylaspartic acid]
8 | 16.9 min | Nc1nc2c(ncn2C2OC(COP(=O)(O)OP(=O)(O)OP(=O)(O)O)C(O)C2O)c(=O)[nH]1 (configuration not stated) [GTP]
9 | 13.9 min | Nc1nc2c(ncn2C2OC(COP(=O)(O)O)C(O)C2O)c(=O)[nH]1 (configuration not stated) [GMP]
10 | 3.76 min | O=C(O)CCCCC1SCC2NC(=O)NC21 (configuration not stated) [Biotin]
11 | 10.9 min | O=P(O)(O)OCC(O)CO (configuration not stated) [Glycerol-3-phosphate]
12 | 8.62 min | Nc1ncnc2c1ncn2C1OC(COP(=O)(O)O)C(O)C1O (configuration not stated) [AMP]
13 | 6.28 min | Nc1ccn(C2OC(CO)C(O)C2O)c(=O)n1 (configuration not stated) [Cytidine]
14 | 12.7 min | Cc1ncc(C[n+]2csc(CCO)c2C)c(N)n1 [Thiamine]
15 | 3.84 min | Nc1ncnc2nc[nH]c12 [Adenine]
16 | 9.51 min | O=C1OC(C(O)CO)C(O)=C1O (configuration not stated) [Ascorbic Acid]
17 | 6.31 min | NC(Cc1c[nH]c2ccccc12)C(=O)O (configuration not stated) [Tryptophan]
18 | 9.59 min | O=c1ccn(C2OC(COP(=O)(O)O)C(O)C2O)c(=O)[nH]1 (configuration not stated) [UMP]
19 | 6.99 min | CSCCC(N)C(=O)O (configuration not stated) [Methionine]

Row | LC retention time | SMILES
20 | 18.4 min | NCCCCC(N)C(=O)O (configuration not stated) [Lysine]
21 | 12.5 min | Nc1ncnc2c1ncn2C1OC(COP(=O)(O)OP(=O)(O)O)C(O)C1O (configuration not stated) [ADP]
22 | 16.5 min | O=C(O)CC(O)(CC(=O)O)C(=O)O [Citric acid]
23 | 6.75 min | CCC(C)C(N)C(=O)O (configuration not stated) [Isoleucine]
24 | 5.37 min | NC(Cc1ccccc1)C(=O)O (configuration not stated) [Phenylalanine]
25 | 11.1 min | NC(=O)CC(N)C(=O)O (configuration not stated) [Asparagine]
26 | 10.2 min | NC(CCC(=O)O)C(=O)O (configuration not stated) [Glutamic acid]
27 | 15.8 min | O=C(O)CC(C(=O)O)C(O)C(=O)O (configuration not stated) [Isocitric acid]
28 | 11.9 min | CC(=O)NC1C(OP(=O)(O)OP(=O)(O)OCC2OC(n3ccc(=O)[nH]c3=O)C(O)C2O)OC(CO)C(O)C1O (configuration not stated) [UDP-GlcNAc]
29 | 12.3 min | O=c1ccn(C2OC(COP(=O)(O)OP(=O)(O)O)C(O)C2O)c(=O)[nH]1 (configuration not stated) [UDP]
30 | 7.27 min | Nc1nc2c(ncn2C2OC(CO)C(O)C2O)c(=O)[nH]1 (configuration not stated) [Guanosine]
31 | 6.97 min | CC(C)C(N)C(=O)O (configuration not stated) [Valine]
32 | 6.75 min | O=C(O)C1(O)CC(O)C(O)C(O)C1 (configuration not stated) [Quinic Acid]
33 | 14.4 min | Nc1nc2ncc(CNc3ccc(C(=O)NC(CCC(=O)O)C(=O)O)cc3)nc2c(=O)[nH]1 (configuration not stated) [Folic Acid]
34 | 13.2 min | Nc1ccn(C2OC(COP(=O)(O)OP(=O)(O)O)C(O)C2O)c(=O)n1 (configuration not stated) [CDP]
35 | 10.8 min | Nc1ccn(C2OC(COP(=O)(O)O)C(O)C2O)c(=O)n1 (configuration not stated) [CMP]
36 | 13.6 min | C=C(OP(=O)(O)O)C(=O)O [PEP]
37 | 11.8 min | NC(CSSCC(N)C(=O)O)C(=O)O (configuration not stated) [Cystine]
38 | 8.59 min | CC(=O)SCCNC(=O)CCNC(=O)C(O)C(C)(C)COP(=O)(O)OP(=O)(O)OCC1OC(n2cnc3c(N)ncnc32)C(O)C1OP(=O)(O)O (configuration not stated) [Acetyl-CoA]

Row | LC retention time | SMILES
39 | 14.8 min | Nc1nc2c(ncn2C2OC(COP(=O)(O)OP(=O)(O)O)C(O)C2O)c(=O)[nH]1 (configuration not stated) [GDP]
40 | 8.95 min | NC(CCC(=O)NC(CS)C(=O)NCC(=O)O)C(=O)O (configuration not stated) [GSH]
41 | 17.7 min | NCCCC(N)C(=O)O (configuration not stated) [Ornithine]
42 | 15.6 min | NC(CCC(=O)NC(CSSCC(NC(=O)CCC(N)C(=O)O)C(=O)NCC(=O)O)C(=O)NCC(=O)O)C(=O)O (configuration not stated) [GSSG]
43 | 7.48 min | O=C(O)C1CCCN1 (configuration not stated) [Proline]
44 | 12.1 min | O=C(O)CCC(=O)O [Succinic Acid]
45 | 13 min | O=C(O)CC(O)C(=O)O (configuration not stated) [Malic Acid]
46 | 9.63 min | O=C(O)CC(=O)O [Malonic Acid]
47 | 9.95 min | NC(=O)C1=CN(C2OC(COP(=O)(O)OP(=O)(O)OCC3OC(n4cnc5c(N)ncnc54)C(O)C3O)C(O)C2O)C=CC1 (configuration not stated) [NADH]
48 | 8.86 min | NC(=O)CCC(N)C(=O)O (configuration not stated) [Glutamine]
49 | 9.99 min | NC(=O)c1ccc[n+](C2OC(COP(=O)([O-])O)C(O)C2O)c1 (configuration not stated) [NMN]
50 | 13.9 min | Nc1ncnc2c1ncn2C1OC(COP(=O)(O)OP(=O)(O)OP(=O)(O)O)C(O)C1O (configuration not stated) [ATP]
51 | 8.15 min | NC(Cc1ccc(O)cc1)C(=O)O (configuration not stated) [Tyrosine]
52 | 13.6 min | O=C(O)C(CO)OP(=O)(O)O (configuration not stated) [Phosphoglyceric acid A]
53 | 8.47 min | CC(O)C(N)C(=O)O (configuration not stated) [Threonine]
54 | 3.76 min | Nc1ncnc2c1ncn2C1OC(CO)C(O)C1O (configuration not stated) [Adenosine]
55 | 3.22 min | CC(O)C(=O)O (configuration not stated) [Lactic Acid]
56 | 13.4 min | NC(=O)c1ccc[n+](C2OC(COP(=O)(O)OP(=O)(O)OCC3OC(n4cnc5c(N)ncnc54)C(OP(=O)(O)O)C3O)C(O)C2O)c1 (configuration not stated) [NADP]
57 | 9.56 min | NC(CO)C(=O)O (configuration not stated) [Serine]
